{
  "source": "patent US6582718B2",
  "about": "“Cyclosporin compositions” (Novartis AG, priority 1992, dated 2003)",
  "assay": "Irritation of the eyes by surfactants used in eye-drops",
  "text": "In an attempt to solve these problems, studies have been conducted with various surfactants which are currently used for formulating medical substances with low solubility in water, especially the most commonly used surfactants polysorbate 80 and polyoxyethylene hydrogenated castor oil.",
  "data": [
    {"substance": "Polyoxyethylene hydrogenated castor oil", "values": [
      {"measurement": "irritation of the eyes", "result": "strongly irritate the eyes"}
    ]}
  ]
}
